Bounds are passed on as bounds.

This is an account of results in EP2073012A1, “Method for the isolation and identification of ADP-ribosylated molecules” (Fondazione Telethon, priority 2007, dated 2009).

One test has as its system BAL9. The conditions noted are these: cited from earlier work.
The target in another test is T1, Af1521 (Archaeoglobus fulgidus, UniProt O28751).
T1 sequence (O28751 1-192): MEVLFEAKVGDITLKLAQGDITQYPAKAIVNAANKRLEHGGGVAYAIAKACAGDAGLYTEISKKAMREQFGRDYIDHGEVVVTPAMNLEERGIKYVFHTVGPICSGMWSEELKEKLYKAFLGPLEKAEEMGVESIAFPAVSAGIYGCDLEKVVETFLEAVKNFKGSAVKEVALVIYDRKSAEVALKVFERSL
The conditions noted are these: cited from earlier work.

For the next test, the target named is T2, His6-mAf1521 (Archaeoglobus fulgidus, UniProt O28751).
T2 construct: made in house
T2 sequence (O28751 1-192): T1 sequence (O28751 1-192)
Description: Pull-down displacement assay: free ADP-ribose added after pull-down of [32P]-ADP-ribosylated β subunit by resin-bound His6-mAf1521. Format: binding. The procedure:
Samples (10 µg plasma membranes) were incubated with 50 µl ADP-ribosylation buffer (50 mM potassium phosphate buffer (PFB), pH 7.4, 5 mM MgCl2, 4 mM dithiothreitol (DTT), 10 µM GTPγS, 700 µM β-NAD^+ and 4.5 µCi [^32P]-NAD (specific activity: 1,000 Ci/mmol)) at 37 °C for 60 min, unless otherwise specified. Under these conditions, 10% of the total β was mono-ADP-ribosylated; to obtain maximal modification (80%-100% of total β mono-ADP-ribosylated), the incubation was prolonged to 12 h at 30 °C. The in-vitro PT-catalyzed ADP-ribosylation was performed as previously described^34, using either total membranes or purified proteins (β-action or SLC25A5; Sigma and Abnova Corporation, respectively). […]
Plasma membranes (10 µg for each sample) were ADP-ribosylated as described above, washed with 50 mM PFB, pH 7.4, to remove unbound NAD, and then centrifuged at 16.000x g for 15 min at 4 °C. […] Then the resin was washed three times with RIPA buffer plus 10 mM imidazole, and finally both the washed resin and the unbound fraction (one-eight of the total volume) were diluted in 50 µl Laemmli buffer, boiled and analysed by 10% SDS-PAGE. […] The gels underwent colloidal Coomassie blue (blue code, Pierce) or silver staining, and the bands of interest were analysed by MALDI-TOF-MS. […]

On to `NC(=O)c1ccc[n+]([C@@H]2O[C@H](COP(=O)([O-])OP(=O)(O)OC[C@H]3O[C@@H](n4cnc5c(N)ncnc54)[C@H](O)[C@@H]3O)[C@@H](O)[C@H]2O)c1` [NAD], for which the “fold lower affinity than free ADP-ribose” value with BAL9 and on Af1521 was > 1000 fold throughout.
With `Nc1ncnc2c1ncn2[C@@H]1O[C@H](CO)[C@@H](O)[C@H]1O` [adenosine], the “fold lower affinity than free ADP-ribose” value in the test on BAL9 and at Af1521 was > 1000 fold in each case.
Consider ADP-ribose, for which, on His6-mAf1521 (molar excess over bound β subunit), the “excess of ADP-ribose able to displace the immobilized ADP-ribosylated β subunit from the His6-mAf1521-resin complex” value is recorded as ~100 fold. For the same compound, the “ADP-ribose concentration to displace all of the His6-mAf1521-bound [32P]-ADP-ribosylated β subunit” value at His6-mAf1521 (∼400 pmol ADP-ribose against ∼4 pmol bound β subunit) is reported as 100 µM.
